# Patent US20220024945A1, “THERAPEUTIC COMPOUNDS AND COMPOSITIONS, AND METHODS OF USE THEREOF” (Genentech, Inc., priority 2017, published 2022)
# Experiments:
# [1] = biological target: isolated recombinant JAK2 kinase domain (Homo sapiens, UniProt O60674); assay: JAK enzyme assay (Caliper LabChip), JAK2 kinase domain; conditions: ATP 25 μM, 0.2 nM JAK2, Morrison tight binding model
# Method: JAK Enzyme Assays were Carried Out as Follows:
# The activity of the isolated recombinant JAK1 and JAK2 kinase domain was measured by monitoring phosphorylation of a peptide derived from JAK3 ([sequence] fluorescently labeled on the N-terminus with 5-carboxyfluorescein) using the Caliper LabChip® technology (Caliper Life Sciences, Hopkinton, Mass.). […] Reactions were incubated at 22° C. in 384-well polypropylene microtiter plates for 30 minutes and then stopped by addition of 25 μL of an EDTA containing solution (100 mM HEPES buffer (pH 7.2), 0.015% Brij-35, 150 mM EDTA), resulting in a final EDTA concentration of 50 mM. After termination of the kinase reaction, the proportion of phosphorylated product was determined as a fraction of total peptide substrate using the Caliper LabChip® 3000 according to the manufacturer's specifications.
# [2] = test system: JAK1-dependent STAT6 phosphorylation downstream of IL-13 stimulation, BEAS-2B cells; assay: JAK1 pathway assay in cell lines: P-STAT6 in BEAS-2B cells + IL13; format: cell-based; conditions: Homo sapiens, BEAS-2B, 1 h, BEAS-2B human bronchial epithelial cells, 1 hr compound preincubation, read-out: P-STAT6 BEAS2B + IL13 IC50
# Method: JAK1 Pathway Assay in Cell Lines was Carried Out as Follows:
# Inhibitor potency (EC50) was determined in cell-based assays designed to measure JAK1 dependent STAT phosphorylation. As noted above, inhibition of IL-4, IL-13, and IL-9 signaling by blocking the Jak/Stat signaling pathway can alleviate asthmatic symptoms in pre-clinical lung inflammation models (Mathew et al., 2001, J Exp Med 193(9): 1087-1096; Kudlacz et. al., 2008, Eur J. Pharmacol 582(1-3): 154-161).
# In one assay approach, TF-1 human erythroleukemia cells obtained from the American Type Culture Collection (ATCC; Manassas, Va.) were used to measure JAK1-dependent STAT6 phosphorylation downstream of IL-13 stimulation. Prior to use in the assays, TF-1 cells were starved of GM-CSF overnight in OptiMEM medium (Life Technologies, Grand Island, N.Y.) supplemented with 0.5% charcoal/dextran stripped fetal bovine serum (FBS), 0.1 mM non-essential amino acids (NEAA), and 1 mM sodium pyruvate. The assays were run in 384-well plates in serum-free OptiMEM medium using 300,000 cells per well. In a second assay approach, BEAS-2B human bronchial epithelial cells obtained from ATCC were plated at 100,000 cells per well of a 96-well plate one day prior to the experiment. The BEAS-2B assay was run in complete growth medium (bronchial epithelial basal medium plus bulletkit; Lonza; Basel, Switzerland).
# Test compounds were serially diluted 1:2 in DMSO and then diluted 1:50 in medium just before use. Diluted compounds were added to the cells, for a final DMSO concentration of 0.2%, and incubated for 30 m (for the TF-1 assay) or 1 hr (for the BEAS-2B assay) at 37° C. Then, cells were stimulated with human recombinant cytokine at their respective EC90 concentrations, as previously determined for each individual lot. Cells were stimulated with […] (R&D Systems, Minneapolis, Minn.) for 15 m/at 37° C. The TF-1 cell reactions were stopped by the direct addition of 10× lysis buffer (Cell Signaling Technologies, Danvers, Mass.), whereas the BEAS-2B cell incubations were halted by the removal of medium and addition of 1× lysis buffer. The resultant samples were frozen in the plates at −80° C. Compound mediated inhibition of STAT6 phosphorylation was measured in the cell lysates using MesoScale Discovery (MSD) technology (Gaithersburg, Md.). EC50 values were determined as the concentration of compound required for 50% inhibition of STAT phosphorylation relative to that measured for the DMSO control.
# [3] = biological target: isolated recombinant JAK1 kinase domain (Homo sapiens, UniProt P23458); assay: JAK enzyme assay (Caliper LabChip), JAK1 kinase domain; format: biochemical; conditions: ATP 25 μM; 1.5 nM JAK1; Morrison tight binding model
# isolated recombinant JAK1 kinase domain, sequence (P23458 875-1153 limits assumed): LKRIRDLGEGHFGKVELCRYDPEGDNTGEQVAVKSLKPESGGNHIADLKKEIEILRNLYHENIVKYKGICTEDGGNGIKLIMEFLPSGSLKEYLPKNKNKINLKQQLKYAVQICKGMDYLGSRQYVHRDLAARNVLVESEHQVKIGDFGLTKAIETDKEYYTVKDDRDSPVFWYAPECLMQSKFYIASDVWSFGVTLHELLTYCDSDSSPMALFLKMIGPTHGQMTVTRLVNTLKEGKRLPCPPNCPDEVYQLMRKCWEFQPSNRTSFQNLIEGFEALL
# isolated recombinant JAK2 kinase domain, sequence (O60674 849-1124 limits assumed): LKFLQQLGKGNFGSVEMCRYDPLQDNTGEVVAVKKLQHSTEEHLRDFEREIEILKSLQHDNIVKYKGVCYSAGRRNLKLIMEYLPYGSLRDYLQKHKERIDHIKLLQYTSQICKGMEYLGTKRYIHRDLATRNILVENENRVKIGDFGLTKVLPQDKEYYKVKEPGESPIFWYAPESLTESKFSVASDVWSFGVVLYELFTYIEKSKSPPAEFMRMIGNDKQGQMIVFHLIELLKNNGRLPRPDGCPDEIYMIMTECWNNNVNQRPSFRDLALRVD
Structure (SMILES),Ki [1] [nM],Ki [3] [nM],IC50 [2] [nM]
"O=C(Nc1c[nH]nc1-c1cc(SCC(F)(F)F)ccc1OC(F)F)c1cnn2cccnc12 [Example 3, N-[3-[2-(difluoromethoxy)-5-(2,2,2-trifluoroethylsulfanyl)phenyl]-1H-pyrazol-4-yl]pyrazolo[1,5-a]pyrimidine-3-carboxamide]",0.12,0.16,10
"O=C(Nc1c[nH]nc1-c1cc(SC(F)(F)F)ccc1OC(F)F)c1cnn2cccnc12 [Example 5, N-[3-[2-(difluoromethoxy)-5-(trifluoromethylsulfanyl)phenyl]-1H-pyrazol-4-yl]pyrazolo[1,5-a]pyrimidine-3-carboxamide]",0.21,0.5,6
"O=C(Nc1c[nH]nc1-c1cc(SC2CCCC2)ccc1OC(F)F)c1cnn2cccnc12 [Example 7, N-[3-[5-cyclopentylsulfanyl-2-(difluoromethoxy)phenyl]-1H-pyrazol-4-yl]pyrazolo[1,5-a]pyrimidine-3-carboxamide]",0.37,0.76,12
"CC(C)Sc1ccc(OC(F)F)c(-c2nn(CCO)cc2NC(=O)c2cnn3cccnc23)c1 [Example 10, N-[3-[2-(difluoromethoxy)-5-isopropylsulfanyl-phenyl]-1-(2-hydroxyethyl)pyrazol-4-yl]pyrazolo[1,5-a]pyrimidine-3-carboxamide]",0.24,0.58,17
"O=C(Nc1cn(Cc2cn(C3CCN(C4COC4)CC3)nn2)nc1-c1cc(SC2COC2)ccc1OC(F)F)c1cnn2cccnc12 [Example 17, N-[3-[2-(difluoromethoxy)-5-(oxetan-3-ylsulfanyl)phenyl]-1-[[1-[1-(oxetan-3-yl)-4-piperidyl]triazol-4-yl]methyl]pyrazol-4-yl]pyrazolo[1,5-a]pyrimidine-3-carboxamide]",0.57,0.81,130
COC(=O)N1CCN(CC2CCN(C(=O)Cn3cc(NC(=O)c4cnn5cccnc45)c(-c4cc(SC(CF)CF)ccc4OC(F)F)n3)CC2)CC1 [Example 18],1.3,0.4,33
"CSc1ccc(OC(F)F)c(-c2nn(CC(C)(C)O)cc2NC(=O)c2cnn3cccnc23)c1 [Example 19, N-[3-[2-(difluoromethoxy)-5-methylsulfanyl-phenyl]-1-(2-hydroxy-2-methyl-propyl)pyrazol-4-yl]pyrazolo[1,5-a]pyrimidine-3-carboxamide]",0.48,0.36,15
"O=C(Nc1cn(CCO)nc1-c1cc(SC(CF)CF)ccc1OC(F)F)c1cnn2cccnc12 [Example 22, N-[3-[2-(difluoromethoxy)-5-[2-fluoro-1-(fluoromethyl)ethyl]sulfanyl-phenyl]-1-(2-hydroxyethyl)pyrazol-4-yl]pyrazolo[1,5-a]pyrimidine-3-carboxamide]",0.19,0.32,18
"CSc1ccc(OC(F)F)c(-c2nn(CC(=O)N3CCC(O)CC3)cc2NC(=O)c2cnn3cccnc23)c1 [Example 23, N-[3-[2-(difluoromethoxy)-5-methylsulfanyl-phenyl]-1-[2-(4-hydroxy-1-piperidyl)-2-oxo-ethyl]pyrazol-4-yl]pyrazolo[1,5-a]pyrimidine-3-carboxamide]",0.55,0.35,47
"CSc1ccc(OC(F)F)c(-c2nn(CC(N)=O)cc2NC(=O)c2cnn3cccnc23)c1 [Example 27, N-[1-(2-amino-2-oxo-ethyl)-3-[2-(difluoromethoxy)-5-methylsulfanyl-phenyl]pyrazol-4-yl]pyrazolo[1,5-a]pyrimidine-3-carboxamide]",0.1,0.29,12
CSc1ccc(OC(F)F)c(-c2nn(CC(=O)N3CCCCC3)cc2NC(=O)c2cnn3cccnc23)c1 [Example 29],0.39,0.25,14
"CNC(=O)Cn1cc(NC(=O)c2cnn3cccnc23)c(-c2cc(SC(F)F)ccc2OC(F)F)n1 [Example 32, N-[3-[2-(difluoromethoxy)-5-(difluoromethylsulfanyl)phenyl]-1-[2-(methylamino)-2-oxo-ethyl]pyrazol-4-yl]pyrazolo[1,5-a]pyrimidine-3-carboxamide]",0.51,0.35,14

# Now from value to compound, other results behind:
Ki [1] [nM],Ki [3] [nM],Structure (SMILES),IC50 [2] [nM]
0.15,0.23,"CC(CO)Sc1ccc(OC(F)F)c(-c2n[nH]cc2NC(=O)c2cnn3cccnc23)c1 (stereo not drawn) [Example 4, N-[3-[2-(difluoromethoxy)-5-(2-hydroxy-1-methyl-ethyl)sulfanyl-phenyl]-1H-pyrazol-4-yl]pyrazolo[1,5-a]pyrimidine-3-carboxamide]",35
2.93,0.97,"CN(C1CCN(C(=O)Cn2cc(NC(=O)c3cnn4cccnc34)c(-c3cc(SC4CCOCC4)ccc3OC(F)F)n2)CC1)C1COC1 [Example 6, N-[3-[2-(difluoromethoxy)-5-tetrahydropyran-4-ylsulfanyl-phenyl]-1-[2-[44-[methyl(oxetan-3-yl)amino]-1-piperidyl]-2-oxo-ethyl]pyrazol-4-yl]pyrazolo[1,5-a]pyrimidine-3-carboxamide]",278
0.14,0.23,"O=C(Nc1c[nH]nc1-c1cc(SC2CCC2)ccc1OC(F)F)c1cnn2cccnc12 [Example 9, N-[3-[5-cyclobutylsulfanyl-2-(difluoromethoxy)phenyl]-1H-pyrazol-4-yl]pyrazolo[1,5-a]pyrimidine-3-carboxamide]",7
0.22,0.46,"O=C(Nc1cn(C2COC2)nc1-c1cc(SC2COC2)ccc1OC(F)F)c1cnn2cccnc12 [Example 24, N-[3-[2-(difluoromethoxy)-5-(oxetan-3-ylsulfanyl)phenyl]-1-(oxetan-3-yl)pyrazol-4-yl]pyrazolo[1,5-a]pyrimidine-3-carboxamide]",17
0.59,0.28,"O=C(Nc1cn(CC(=O)N2CC=CCC2)nc1-c1cc(SC2COC2)ccc1OC(F)F)c1cnn2cccnc12 [Example 25, N-[3-[2-(difluoromethoxy)-5-(oxetan-3-ylsulfanyl)phenyl]-1-[2-(3,6-dihydro-2H-pyridin-1-yl)-2-oxo-ethyl]pyrazol-4-yl]pyrazolo[1,5-a]pyrimidine-3-carboxamide]",14
0.93,0.32,"CN(C)C(=O)Cn1cc(NC(=O)c2cnn3cccnc23)c(-c2cc(SC3COC3)ccc2OC(F)F)n1 [Example 26, N-[3-[2-(difluoromethoxy)-5-(oxetan-3-ylsulfanyl)phenyl]-1-[2-(dimethylamino)-2-oxo-ethyl]pyrazol-4-yl]pyrazolo[1,5-a]pyrimidine-3-carboxamide]",34
0.96,0.41,"O=C(Nc1cn(CC(=O)N2CCCCC2)nc1-c1cc(SC2COC2)ccc1OC(F)F)c1cnn2cccnc12 [Example 28, N-[3-[2-(difluoromethoxy)-5-(oxetan-3-ylsulfanyl)phenyl]-1-[2-oxo-2-(1-piperidyl)ethyl]pyrazol-4-yl]pyrazolo[1,5-a]pyrimidine-3-carboxamide]",24
0.09,0.16,"O=C(Nc1c[nH]nc1-c1cc(SC(F)F)ccc1OC(F)F)c1cnn2cccnc12 [Example 30, N-[3-[2-(difluoromethoxy)-5-(difluoromethylsulfanyl)phenyl]-1H-pyrazol-4-yl]pyrazolo[1,5-a]pyrimidine-3-carboxamide]",5
